Measurements reported in patent EP0023335A1, “N-Hydroxyalkylimidazoline derivatives, a method for their preparation and their application” (Henkel Kommanditgesellschaft auf Aktien, priority 1979, dated 1981).
≈ marks a conversion by molar mass, not a printed value. Each block holds one molecule with its values, some of them ahead of it.

Key:
Assay type in all cases: cell-based
[1] = system: Candida albicans ATCC 10 231; experiment: Inhibition series in liquid nutrient medium, tube test CII1 (DGHM guidelines); conditions: ATCC10, read-out: antimikrobielle Wirkung (Hemmreihen)
Excerpt: (§1) Die antimikrobielle Wirkung der vorstehenden Imidazolin-Acetate geht aus folgender Tabelle hervor:
(§2) Die Prüfung erfolgte in Hemmreihen in flüssigem Nährsubstrat gegenüber den genannten Keimen im Röhrchentest CII1 gemäß Richtlinien der DGHM für chemische Desinfektionsmittel.

[2] = system: Staphylococcus aureus SG 511; experiment: as above; conditions: SG511, read-out: antimikrobielle Wirkung (Hemmreihen)
Excerpt: as §1, §2

Candida albicans = experiment: Microbicidal action in suspension test; conditions: inoculum 1,9 x 10^8 /ml diluted 1:100, room temperature, in H2O
Method: (§3) 55,0 g (0,26 Mol) des Imidazolins Nr. 6 der Tabelle 1 wurden in 30 ml Isopropanol gelöst und mit 32,6 g (0,26 Mol) Benzylchlorid in 3 Stunden bei 80'- 85 °C quaterniert. Danach wurde das Isopropanol abdestilliert und das Produkt mit Wasser auf 30 % Aktivsubstanz eingestellt. Die Ergebnisse der Prüfung der mikrobiziden Wirkung einiger Imidazoliniumsalze der Tabelle 2 finden sich in der nachfolgenden Tabelle 3: […]

Escherichia coli = experiment: Microbicidal action in suspension test; conditions: inoculum 3,7 x 10^8 /ml diluted 1:100, room temperature, in H2O
Method: as §3

Pseudomonas aeruginosa = experiment: Microbicidal action in suspension test; conditions: inoculum 1,6 x 10^8 /ml diluted 1:100, room temperature, in H2O
Method: as §3

Staphylococcus aureus = experiment: Microbicidal action in suspension test; conditions: inoculum 3,0 x 10^8 /ml diluted 1:100, room temperature, in H2O
Method: as §3

MIC [1]: 50 µg/mL (≈ 131 µM) | MIC [2]: < 10 µg/mL
SMILES: CCCCCCCCCCC(O)CN1CCN=C1CCCCCCCCC (stereo not shown) [Imidazolin-Nr.4-acetat]

SMILES: CCCCCCCCCC1=[N+](C)CCN1CC(O)CCCCCCCC (stereo not shown) [Imidazoliniumsalz 1]
Abtötungszeit in Minuten (Candida albicans; 50 ppm active): 40 Minuten | Abtötungszeit in Minuten (Candida albicans; 100 ppm active): 10 Minuten | Abtötungszeit in Minuten (Escherichia coli; 10 ppm active): x (x = > 120 Minuten) | Abtötungszeit in Minuten (Escherichia coli; 50 ppm active): 20 Minuten | Abtötungszeit in Minuten (Escherichia coli; 100 ppm active): ≤ 2,5 Minuten | Abtötungszeit in Minuten (Pseudomonas aeruginosa; 50 ppm active): 20 Minuten | Abtötungszeit in Minuten (Pseudomonas aeruginosa; 100 ppm active): 10 Minuten | Abtötungszeit in Minuten (Staphylococcus aureus; 10 ppm active): 60 Minuten | Abtötungszeit in Minuten (Staphylococcus aureus; 50 ppm active): ≤ 2,5 Minuten | Abtötungszeit in Minuten (Staphylococcus aureus; 100 ppm active): ≤ 2,5 Minuten

SMILES: CCCCCCCCCCC(O)CN1CC[N+](C)=C1CCCCCCC (stereo not shown) [Imidazoliniumsalz 3]
Abtötungszeit in Minuten (Candida albicans; 10 ppm active): 20 Minuten | Abtötungszeit in Minuten (Candida albicans; 50 ppm active): 5 Minuten | Abtötungszeit in Minuten (Escherichia coli; 10 ppm active): 5 Minuten | Abtötungszeit in Minuten (Escherichia coli; 50 ppm active): ≤ 2,5 Minuten | Abtötungszeit in Minuten (Pseudomonas aeruginosa; 10 ppm active): 60 Minuten | Abtötungszeit in Minuten (Pseudomonas aeruginosa; 50 ppm active): 10 Minuten | Abtötungszeit in Minuten (Staphylococcus aureus; 10 ppm active): ≤ 2,5 Minuten | Abtötungszeit in Minuten (Staphylococcus aureus; 50 ppm active): ≤ 2,5 Minuten

SMILES: CCCCCCCCCCC(O)CN1CC[N+](C)=C1CCCCCCCCC (stereo not shown) [Imidazoliniumsalz 4]
Abtötungszeit in Minuten (Candida albicans; 10 ppm active): 20 Minuten | Abtötungszeit in Minuten (Candida albicans; 50 ppm active): 20 Minuten | Abtötungszeit in Minuten (Escherichia coli; 10 ppm active): 60 Minuten | Abtötungszeit in Minuten (Escherichia coli; 50 ppm active): 10 Minuten | Abtötungszeit in Minuten (Pseudomonas aeruginosa; 10 ppm active): 10 Minuten | Abtötungszeit in Minuten (Pseudomonas aeruginosa; 50 ppm active): 10 Minuten | Abtötungszeit in Minuten (Staphylococcus aureus; 10 ppm active): 5 Minuten | Abtötungszeit in Minuten (Staphylococcus aureus; 50 ppm active): 5 Minuten
